According to patent EP4635974A1, “COSMETIC COMPOSITION FOR SKIN IMPROVEMENT” (LG Household & Health Care Ltd., priority 2022, dated 2024):
Where a SMILES comes first, the peptide text is derived from it. Where no end group is shown, it is not given here. The star is where a group is joined. Palmitoyl = CCCCCCCCCCCCCCCC(=O)*

How the values were obtained:
[1] = target: T1, Elastase derived from human leukocytes (Homo sapiens, UniProt P08246); assay: Inhibition of elastase activity (synthetic substrate, absorbance at 405 nm); format: biochemical; conditions: for Inhibition of elastase activity (%): 100 µg/mL
T1 construct: Elastase derived from human leukocytes was used; from tissue; host or cells: human leukocytes
T1 sequence (P08246 30-267): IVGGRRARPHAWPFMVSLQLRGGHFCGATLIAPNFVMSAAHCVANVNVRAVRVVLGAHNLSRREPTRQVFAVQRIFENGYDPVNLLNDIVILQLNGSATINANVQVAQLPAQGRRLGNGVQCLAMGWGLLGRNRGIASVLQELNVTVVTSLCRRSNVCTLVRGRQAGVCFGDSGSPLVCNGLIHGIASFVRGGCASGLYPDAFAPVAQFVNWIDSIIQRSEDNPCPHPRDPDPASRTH
Description: (§1) In order to investigate the effect of peptide sequence variation, the activity of […] was tested as in Test Example 1 after sequence variation. Elastase derived from human leukocytes was used, and the synthetic substrate MeOSuc-Ala-Ala-Pro-Val-pNA was used as the substrate of elastase. A 100 mM Tris (pH 7.5) solution was used as a buffer solution. The elastase was diluted finally to 0.2 mU using the buffer solution. In addition, the synthetic substrate of elastase was prepared into a 100 mM solution using DMSO, and then diluted to a final concentration of 0.5 mM using a buffer solution. As a positive control group, quercetin known to inhibit elastase was used at a concentration of 10 ppm. The candidates of elastase inhibition were tested at final concentrations of 10 and 20 ppm. Reaction was conducted in a 96-well plate at room temperature for 20 minutes. The inhibition of the enzyme activity was determined by measuring absorbance at 405 nm using a spectrophotometer with 1-minute intervals, and calculating the slope of the absorbance versus time.
(§2) The peptide sequences of SEQ ID NOS 14 to 16 were treated at 100 µg/mL, and the peptide sequence RKSLFVD was used as a control peptide sequence. The inhibition of collagenase activity (%) and the inhibition of elastase activity (%) were calculated from the relative enzyme activity versus the control group, and the result is given in Table 4.
(§3) In order to investigate the effect of variation of the N-terminal or C-terminal of the peptide sequence, the activity of collagenase and elastase was tested after sequence variation as in Test Example 1.

[2] = tested on: Collagenase derived from the mouse pancreas; assay: Inhibition of collagenase activity (synthetic substrate, absorbance at 345 nm); format: biochemical; conditions: 100 µg/mL
Description: Collagenase derived from the mouse pancreas was used, and the synthetic substrate N-(3-[2-furyl]acryloyl)-Leu-Gly-Pro-Ala was used as the substrate of collagenase. A buffer solution in which 50 mM tricine, 10 mM CaCl2·H2O and 400 mM NaCl were dissolved (pH 7.5) was used. The synthetic substrate was dissolved in the buffer solution to a concentration of 10 mM and finally diluted to 75 µM. The collagenase was dissolved to a concentration of 1 unit/mL using cold triply distilled water at 4 °C and then finally diluted to 0.05 unit/mL using a buffer solution. The candidates of collagenase inhibition were tested at final concentrations of 25 and 50 ppm. As a positive control group, epigallocatechin gallate (EGCG) known to have the effect of inhibiting collagenase was used at a final concentration of 50 ppm. Reaction was conducted in a 96-well plate at room temperature for 10 minutes. The inhibition of the enzyme activity was determined by measuring absorbance at 345 nm using a spectrophotometer with 1-minute intervals, and calculating the maximum slope of the absorbance versus time.
as §1, §2, §3

[3] = tested on: acetylcholine release at the neuromuscular synapses; conditions: cited from earlier work
[4] = Table 4, relative enzyme activity versus the control group
[5] = Table 5, N-terminal or C-terminal variation

| Compound | inhibition at 100 µg/mL [1, 4] | Inhibition of collagenase activity (%) ([2]; Table 3) | also measured |
| --- | --- | --- | --- |
| FCSSRGK [SEQ ID NO 16, FCSSRGK] | 51.5% |  |  |
| CC(C)[C@H](NC(=O)[C@H](Cc1ccccc1)NC(=O)[C@H](CS)NC(=O)[C@H](CO)NC(=O)[C@H](CO)NC(=O)[C@H](CCCNC(=N)N)NC(=O)CNC(=O)[C@@H](N)CCCCN)C(=O)N[C@@H](CC(=O)O)C(=O)N[C@@H](CS)C(N)=O [C-amine-substituted peptide of SEQ ID] (H-KGRSSCFVDC-NH2) |  |  | inhibition at 100 µg/mL [1, 5]: 52.6% |
| RKSLFVD [Control peptide sequence, RKSLFVD, reference compound] | 5.2% |  | inhibition at 100 µg/mL [1, 5]: 1.3% |
| KGRSSCFVDC [SEQ ID NO 1] |  | 22.91% | Inhibition of elastase activity (%) [1, 4]: 72.1%; Inhibition of elastase activity (%) [1, 5]: 68.3%; Inhibition of collagenase activity (%) [2, 4]: 21.57%; Inhibition of collagenase activity (%) [2, 5]: 22.6% |
| KGSSCFVDC [SEQ ID NO 10] |  | 15.24% |  |
| SSCFVDC [SEQ ID NO 6] |  | 17.97% |  |
| CCCCCCCCCCCCCCCC(=O)N[C@@H](CCCCN)C(=O)NCC(=O)N[C@@H](CCCNC(=N)N)C(=O)N[C@@H](CO)C(=O)N[C@@H](CO)C(=O)N[C@@H](CS)C(=O)N[C@@H](Cc1ccccc1)C(=O)N[C@H](C(=O)N[C@@H](CC(=O)O)C(=O)N[C@@H](CS)C(=O)O)C(C)C (Palmitoyl-KGRSSCFVDC-OH) |  |  | inhibition at 100 µg/mL [1, 5]: 74.1% |
| KGRSSCF [SEQ ID NO 3, KGRSSCF] | 57.8% |  |  |
| KGRSSCFDC [SEQ ID NO 11] |  | 11.82% |  |
| CDVFCSSRGK [SEQ ID NO 14] |  |  | Inhibition of elastase activity (%) [1, 4]: 68.5%; Inhibition of collagenase activity (%) [2, 4]: 24.77% |
| RSSCFVDC [SEQ ID NO 5] |  | 12.23% |  |
| DVFCSSRGK [SEQ ID NO 15, DVFCSSRGK] | 65.5% |  |  |
| CC(=O)N[C@@H](CCCCN)C(=O)NCC(=O)N[C@@H](CCCNC(=N)N)C(=O)N[C@@H](CO)C(=O)N[C@@H](CO)C(=O)N[C@@H](CS)C(=O)N[C@@H](Cc1ccccc1)C(=O)N[C@H](C(=O)N[C@@H](CC(=O)O)C(=O)N[C@@H](CS)C(=O)O)C(C)C (Ac-KGRSSCFVDC-OH) |  |  | inhibition at 100 µg/mL [1, 5]: 71% |
| KGRSSCFVC [SEQ ID NO 12] |  | 13.97% |  |
| Ac-Glu-Glu-Met-Gln-Arg-Arg-NH2 (Ac-EEMQRR-NH2) [Argireline] |  |  | times weaker than Botox [3]: 5000 times |
| KGRSSCFVD [SEQ ID NO 2, KGRSSCFVD] | 70.9% |  |  |
